Assay results: patent US10766855B2, “Hydroxamate triterpenoid derivatives” (VIVACELL BIOTECHNOLOGY ESPANA S.L., priority 2016, dated 2020)

Legend:
Format in all cases: cell-based
[1] = tested on: HIF-1α; experiment: HIF-1α transactivation assay in NIH-3T3-EPO-Luc fibroblast cells; conditions: for EC50: Fibroblast, read-out: Potency EC50 HIF-1α; for EC50 / Efficacy HIF-1α (IRA coefficient): 6 h stimulation; for Efficacy HIF-1α (IRA coefficient): relative to 150 μM DFX
Method: To investigate the biological activities of the different compounds, HIF-1α transactivation assays were performed either in NIH-3T3-EPO-Luc cells (Table II) or in HaCaT-EPO-luc cells (FIG. 2). The NIH3T3-EPO-luc and HaCaT-EPO-luc cells have been stably transfected with the plasmid Epo-Luc plasmid. The EPO-Hypoxia Response Element (HRE)-luciferase reporter plasmid contains three copies of the HRE consensus sequence from the promoter of the erythropoietin gene fused to the luciferase gene. NIH3T3-EPO-luc cells were maintained at 37° C. in a humidified atmosphere containing 5% CO2 in DMEM supplemented with 10% fetal calf serum (FBS), and 1% (v/v) penicillin/streptomycin. DFX was purchased from Sigma-Aldrich (USA). Cells (1×10^4/well in 96 well plates) were seeded the day before the assay. […] After six hours of stimulation the cells were lysed in 25 mM Tris-phosphate pH 7.8, 8 mM MgCl2, 1 mM DTT, 1% Triton X-100, and 7% glycerol during 15 min at RT in a horizontal shaker. Luciferase activity is measured using a microplate luminometer (Berthold) following the instructions of the luciferase assay kit (Promega, Madison, Wis., USA).

[2] = tested on: NF-κB; experiment: NF-κB inhibition in NIH-3T3-KBF-Luc cells stimulated with TNFα; conditions: TNFα 30 ng/ml, 6 h
Method: To further study the target selectivity of the compounds described in the present invention the effect of the natural triterpenoids (OA; BA, UA, and MA), compounds II to XV of Formula (I) disclosed in present invention, and of comparative compound CDDO-Me on NF-κB inhibition, STAT-3 inhibition, Nrf2 activation and TGR5 activation was analyzed. For this study cell lines NIH-3T3-KBF-Luc, HeLa-STAT3-Luc, HaCaT-ARE-Luc and CHO-TGR5-CRE-luc were used respectively. The NIH3T3-KBF-Luc cell line stably transfected with the plasmid KBF-Luc plasmid, which contains three copies of NF-κB binding site (from major histocompatibility complex promoter), fused to a minimal simian virus 40 promoter driving the luciferase gene. Cells (1×10^4/well) were seeded in 96-well plates, treated with increasing concentrations of the compounds II to XV for 15 min and then stimulated with 30 ng/ml TNFα. After 6 h the luciferase activity in the cell lysates was measured as indicated above.

[3] = tested on: STAT3; experiment: STAT3 inhibition in HeLa-STAT3-Luc cells stimulated with IFN-γ; conditions: IFN-γ 25 IU/ml, 6 h
Method: (§1) The HeLa-STAT3-luc cells stably transfected with the plasmid 4×M67 pTATA TK-Luc. Cells (20×10^3 cells/ml) were seeded in 96-well plates, treated with increasing concentrations of the compounds II to XIV, and of comparative compound CDDO-Me, for 15 min and then stimulated with IFN-γ 25 IU/ml. After 6 h the luciferase activity in the cell lysates was measured as indicated above. […] The HaCaT-ARE-Luc cell line contains the Nqo1 Antioxidant Response Element (ARE)-Luc reporter plasmid. ARE is activated by all members of the CNC family of factors (Nrf1, Nrf2, Nrf3 and p45 NF-E2). The cells were cultivated in 96-well plates at the concentration of 25×10^3 cells/well in a CO2 incubator at 37° C. For induction of Nrf2 activation the cells were treated with increasing concentrations of the compounds II to XV, and of comparative compound CDDO-Me, for 6 h. As a positive control the cells were treated with 0.02 mM of the antioxidant Tert-butyl-hydroquinone (TBHQ). Luciferase activity in the cell lysates was measured as indicated above and the EC50 calculated (Table III). The CHO-TGR5-CRE-Luc cells stably transfected with the pTGR5 and CRE-Luc. The CRE-responsive luciferase construct encodes the firefly luciferase reporter gene under the control of a minimal (m)CMV promoter and tandem repeats of the CRE transcriptional response element (TRE) and is useful to monitor cAMP signaling pathways activated by TGR5 agonists. Cells (1×10^4/well) were seeded in 96-well plates, treated with increasing concentrations of the compounds II to XV and CDDO-Me, for 6 h. As a positive control the cells were treated with 10 μM of LCA (lithocholic acid). Luciferase activity in the cell lysates was measured as indicated above and the EC50 calculated (Table III).

[4] = tested on: Nrf2; experiment: Nrf2 activation/inhibition in HaCaT-ARE-Luc cells; conditions: 6 h
Method: as §1

[5] = tested on: TGR5; experiment: TGR5 activation in CHO-TGR5-CRE-Luc cells; conditions: for EC50: 6 h
Method: The CHO-TGR5-CRE-Luc cells stably transfected with the pTGR5 and CRE-Luc. […] As a positive control the cells were treated with 10 μM of LCA (lithocholic acid). Luciferase activity in the cell lysates was measured as indicated above and the EC50 calculated (Table III).

[6] = tested on: Nrf2; experiment: Nrf2 activation/inhibition in HaCaT-ARE-Luc cells

Compound	IC50 [2] [µM]	IC50 [3] [µM]	EC50 [5] [µM]	activation of the EPO promoter as a surrogate marker of HIF-1α pathway activation (in words) [1]	EC50 [1] [µM]	Efficacy HIF-1α (IRA coefficient) [1]	EC50 [4] [µM]	IC50 [6] [µM]	agonistic TGR5 activity (in words) [5]
CC1(C)[C@@H](O)CC[C@]2(C)[C@H]3C(=O)C=C4[C@@H]5C[C@@](C)(C(=O)O)CC[C@]5(C)CC[C@@]4(C)[C@]3(C)CC[C@@H]12 [Glycyrrethinic acid, reference compound]				do not activate the HIF-1α pathway	> 50				
C=C(C)[C@@H]1CC[C@]2(C(=O)NO)CC[C@]3(C)[C@H](CC[C@@H]4[C@@]5(C)Cc6cn[nH]c6C(C)(C)[C@@H]5CC[C@]43C)[C@@H]12 [Compound IX, 1′H-Lup-20(29)-eno[3,2-c]pyrazol-N-hydroxy-28-amide]					2.41	0.34			
C=C(C)[C@@H]1CC[C@]2(C(=O)NO)CC[C@]3(C)[C@H](CC[C@@H]4[C@@]5(C)Cc6cnoc6C(C)(C)[C@@H]5CC[C@]43C)[C@@H]12 [Compound VIII, Lup-2-eno[2,3-d]isoxazol-N-hydroxy-28-amide]	> 50	> 50	9.62		2.58	0.55	> 50	> 50	showed agonistic TGR5 activity
CC1(C)C2CC[C@]3(C)[C@H](C(=O)C=C4[C@H]5C[C@@](C)(C(=O)NO)CC[C@]5(C)CC[C@]43C)[C@@]2(C)CC[C@@H]1O (some centres unmarked) [Compound XX, reference compound]				do not activate the HIF-1α pathway	> 50				

More lines, main results first:

IC50 [2] [µM]	IC50 [3] [µM]	EC50 [5] [µM]	Compound	activation of the EPO promoter as a surrogate marker of HIF-1α pathway activation (in words) [1]	EC50 [1] [µM]	Efficacy HIF-1α (IRA coefficient) [1]	EC50 [4] [µM]	IC50 [6] [µM]	agonistic TGR5 activity (in words) [5]
> 50	> 50	> 50	CC1(C)CC[C@]2(C(=O)NO)CC[C@]3(C)C(=CC[C@@H]4[C@@]5(C)C[C@@H](O)[C@H](O)C(C)(C)[C@@H]5CC[C@]43C)[C@@H]2C1 [Compound XIV, (2α,3β) 2,3-Dihydroxy-N-hydroxy-olean-12-en-28-amide]		7.1	0.10	> 50	> 50	
> 50	> 50	> 50	C[C@H]1[C@H](C)CC[C@]2(C(=O)NO)CC[C@]3(C)C(=CC[C@@H]4[C@@]5(C)CC/C(=N/O)C(C)(C)C5CC[C@]43C)[C@H]12 (some centres unmarked) [Compound XIII, 3 Hydroxyimino-N-hydroxy-urs-12-en-28-amide]		8.93	0.10	> 50	> 50	
> 50	> 50	5.91	C[C@H]1[C@H](C)CC[C@]2(C(=O)NO)CC[C@]3(C)C(=CC[C@@H]4[C@@]5(C)CC[C@H](O)C(C)(C)C5CC[C@]43C)[C@H]12 (stereo partly drawn) [Compound XII, (3β) 3-Hydroxy-N-hydroxy-urs-12-en-28-amide]		7.69	0.17	> 50	> 50	showed agonistic TGR5 activity
> 50	> 50	> 50	CC1(C)CC[C@]2(C(=O)NO)CC[C@]3(C)C(=CC[C@@H]4[C@@]5(C)C=C(O)C(=O)C(C)(C)[C@@H]5CC[C@]43C)[C@@H]2C1 [Compound XV, 2-Hydroxy-3-oxo-oleana-1,12-dien-N-hydroxy-28-amide]		11.2	0.06	> 50	> 50	
> 50	> 50	> 50	CC1(C)CC[C@]2(C(=O)NO)CC[C@]3(C)C(=CC[C@@H]4[C@@]5(C)CC[C@H](O)C(C)(C)[C@@H]5CC[C@]43C)[C@@H]2C1 [Compound II, (3β) 3-Hydroxy-N-hydroxy-olean-12-en-28-amide]		16.4	0.39	> 50	> 50	
> 50	> 50		C[C@H]1[C@H](C)CC[C@]2(C(=O)O)CC[C@]3(C)C(=CC[C@@H]4[C@@]5(C)CC[C@H](O)C(C)(C)[C@@H]5CC[C@]43C)[C@H]12 [Ursolic acid, reference compound]	None of the natural triterpenoids	> 50		38.4	> 50	
